Measurements from publication PMC6753678, “Fueling Open Innovation for Malaria Transmission-Blocking Drugs: Hundreds of Molecules Targeting Early Parasite Mosquito Stages” (Frontiers in Microbiology, 2019).
Like-named read-outs stand apart in the source and are kept apart here.

Key:
[1] = tested on: 3D7-strain P. falciparum asexual parasites; assay: P. falciparum asexual growth inhibition assay (Pf GIA); format: cell-based, Plasmodium falciparum
In short: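 3D7 parasites at 0.25% parasitemia, 2% hematocrit were exposed to compounds in dose response for 72 h at 37°C under 5% CO2, 5% O2. Viability read as parasite LDH activity (nitro blue tetrazolium, A650) after freeze-thaw; inhibition scaled to chloroquine (50 μM) and DMSO controls, mean of three biological replicates.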

[2] = tested on: HepG2 cells; assay: HepG2 cytotoxicity assay; conditions: for IC50: read-out: HepG2 cytotoxicity assay IC50, dose response confirmation; for HepG2 cytoxicity: value reported with the Pb ODA screen
In short: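 HepG2 cells, 2,500 per well in MEM with 10% FBS and 1% NEAA, exposed to compounds for 48 h at 37°C, 5% CO2. Viability read by fluorescence; percent inhibition relative to 50 μM doxorubicin and DMSO controls.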

[3] = tested on: P. falciparum female gametocytes; assay: P. falciparum female gametogenesis assay (Pf FGAA); conditions: 1: YES; 0: NO
[4] = tested on: P. berghei ookinete development; conditions: for % inhibition, Replicate A / % inhibition, Replicate B: primary screen at 1 μM
[5] = tested on: P. falciparum female gametocytes; set-up: method as in Miguel-Blanco et al 2017; conditions: ref Miguel-Blanco et al 2017, read-out: Pf FGAA IC50, cited from earlier work
[6] = tested on: HepG2 cells; conditions: cited from earlier work
[7] = tested on: P. falciparum late stage (stages IV-V) gametocytes; set-up: method as in Almela et al 2016; conditions: ref Almela et al 2016, read-out: Pf GCT ATP IC50, cited from earlier work
[8] = tested on: P. falciparum late stage (stages IV-V) gametocytes; assay: P. falciparum late stage gametocyte ATP depletion assay (Pf GC-ATP); conditions: 1: YES; 0: NO
[9] = tested on: P. berghei ookinete development; assay: microbe, parasite or virus in culture; conditions: Plasmodium berghei
[10] = dose response confirmation, read-out: Pf asexual growth inhibition assays IC50
[11] = read-out: Pb ODA IC50, this manuscript
[12] = read-out: Pb Ookinete development assay IC50, dose response confirmation
[13] = HepG2 cytotoxicity unified across the three screens
[14] = value reported with the Pf FGAA screen, ref Miguel-Blanco et al 2017
[15] = value reported with the Pf GCT ATP screen, ref Almela et al 2016

Structure (SMILES)	IC50 [1, 10]	IC50 [2]	Is compound selective in assay? Pf FGAA active? [3]	Is compound selective in assay? Pb ODA active? ([4]; 1: YES, 0: NO)	% inhibition, Replicate A [4]	% inhibition, Replicate B [4]	IC50 [4, 11]	IC50 [4, 12]	Is compound selective in assay? Pf GC-ATP active? [8]	Unified cytotox [2, 13]	HepG2 cytoxicity ([2]; this manuscript)	IC50 ([5]; TCAMS screen comparison)	HepG2 cytoxicity [6, 14]	HepG2 cytoxicity [6, 15]	IC50 ([7]; TCAMS screen comparison)	also measured
Cl.c1ccc2c(NCCCCCCCCCNc3c4ccccc4nc4ccccc34)c3ccccc3nc2c1 [TCMDC-124286]	349 nM	5500 nM	0 (0: NO)	0 (0: NO)	34.80%	55.23%	2030 nM	2030 nM	0 (0: NO)	–	–	–	–	–	–	HepG2 cytoxicity (Pb ODA, this manuscript) ([2]; HepG2, this manuscript): 5.50 µM; Unified cytotox ([2]; HepG2 values of the three screens unified): 5.50 µM; IC50 [5]: 1800 nM; HepG2 cytoxicity (Pf GCT ATP screen) ([6]; HepG2, ref Almela et al 2016): 6.1 µM; HepG2 cytoxicity (Pf FGAA screen) ([6]; HepG2, ref Miguel-Blanco et al 2017): 4.90 µM; IC50 [7]: 1500 nM
C[C@@H]1C[C@@H]([C@H](O)CC2CC(=O)NC(=O)C2)C(=O)[C@@H](C)C1 [TCMDC-125838]	–	100000 nM	–	–	–	–	–	–	–	–	–	–	–	–	–	IC50 ([1]; Plasmodium falciparum, 3D7, read-out: Pf asexual growth inhibition assays IC50): 596 nM; Unified cytotox ([2]; unified HepG2 value across the three screens): 100.00 µM; inhibition at 1 µM ([9]; read-out: % inhibition, Replicate A): 110%; inhibition at 1 µM ([9]; read-out: % inhibition, Replicate B): 117%; IC50 ([9]; read-out: Pb ODA IC50 (µM)): 0.11 µM; IC50 ([9]; read-out: Pb Ookinete development assay IC50): 0.109 µM; Is compound selective in assay? Pb ODA active? [4]: 1 (key: 1: YES; 0: NO)
CCc1c(CCNCCCCCCNCCc2ccc([N+](=O)[O-])cc2)ccc(OC)c1OC.Cl [TCMDC-132066]	675 nM	5130 nM	0 (0: NO)	0 (0: NO)	25.72%	55.23%	6610 nM	6600 nM	1 (1: YES)	5.46 µM	5.13 µM	1460 nM	4.57 µM	6.67 µM	540 nM	–
COc1cc(-c2cc(-c3ccc(S(C)(=O)=O)cc3)cnc2N)ccc1O [TCMDC-133343]	242 nM	57500 nM	1 (1: YES)	1 (1: YES)	63.88%	36.72%	2110 nM	2110 nM	1 (1: YES)	49.62 µM	57.54 µM	390 nM	41.69 µM	>25 µM	1240 nM	–
Cc1occc1C(=O)Nc1nc(-c2ccccn2)nc2ccsc12 [TCMDC-135244]	656 nM	870 nM	1 (1: YES)	0 (0: NO)	79.17%	64.59%	1340 nM	1340 nM	0 (0: NO)	0.87 µM	–	60 nM	>100 µM	<1.56 µM	300 nM	–
Nc1nc(N)c2c(ccc3c2ccn3Cc2ccc(-c3ccccc3)cc2)n1 [TCMDC-137813]	–	–	0 (0: NO)	–	53.67%	5.32%	–	–	0 (0: NO)	1.38 µM	–	2010 nM	1.16 µM	1.6 µM	1450 nM	–
CC(=O)c1ccc2nc[nH]c(=O)c2c1 [TCMDC-138172]	287 nM	1240 nM	0 (0: NO)	0 (0: NO)	76.19%	65.80%	500 nM	503 nM	0 (0: NO)	3.74 µM	1.24 µM	980 nM	6.24 µM	<1.56 µM	400 nM	–
C=CCC1OC(=O)c2cc(OC)cc(OC)c21 (stereo not shown) [TCMDC-138677]	447 nM	2570 nM	0 (0: NO)	0 (0: NO)	53.73%	47.60%	2360 nM	2360 nM	0 (0: NO)	2.43 µM	2.57 µM	360 nM	2.29 µM	<1.56 µM	600 nM	–
CC1(C)CC(NCCCCCCCOc2ccc(OCc3ccccc3)cc2)CC(C)(C)N1.Cl [TCMDC-138958]	–	–	0 (0: NO)	–	59.61%	10.57%	–	–	0 (0: NO)	2.88 µM	–	1230 nM	2.75 µM	3 µM	680 nM	–
ON=C1CCc2cc(-c3cc(-c4ccc(OC5CCNCC5)cc4)oc3-c3ccncc3)ccc21 [TCMDC-141381]	123 nM	5250 nM	1 (1: YES)	0 (0: NO)	75.99%	61.54%	1410 nM	1410 nM	1 (1: YES)	5.92 µM	5.25 µM	200 nM	5.01 µM	7.5 µM	270 nM	–
O=C(O)CCSSc1cccc[n+]1[O-] [TCMDC-141973]	1650 nM	30900 nM	1 (1: YES)	1 (1: YES)	62.58%	47.23%	1910 nM	1910 nM	1 (1: YES)	19.25 µM	30.90 µM	40 nM	19.05 µM	7.8 µM	270 nM	–
